Measurements published in US7208514B2, “Tumorigenesis inhibitor” (Mitsubishi Pharma Corporation, priority 2003, dated 2007).

How the values were obtained:
[1] = system: azoxymethane-induced aberrant crypt foci in colon; assay: Suppressive effect on the formation of azoxymethane-induced aberrant crypt foci in colon; type: in vivo, male ICR mice; settings: for number of colonic ACF / body weight: mean ± standard error; for number of colonic ACF: control 10.3 ± 1.7; for body weight: mixed diet for 5 weeks, azoxymethane-treated mice
[2] = system: lipid peroxide production in homogenate of the brain; assay: Examination of antioxidative effect (thiobarbituric acid reaction product, lipid peroxide, in brain homogenate); type: biochemical, Wistar rat
Method: The absorbance of a thiobarbituric acid reaction product (lipid peroxide) generated 1 hr after the incubation was measured.

[3] = system: dimethylhydrazine-induced colonic ACF and colonic mucosal cell growth; assay: Suppressive effect on the formation of dimethylhydrazine-induced colonic ACF and cancer cell growth; type: in vivo, male ICR mice; settings: for number of colonic ACF: mean ± standard error, control 30.7 ± 3.3
[4] = literature statement; cited from earlier work
[5] = Y-700 5-20 mg/kg mixed diet, 5 weeks
[6] = Y-700 10 and 20 mg/kg mixed diet, 10 weeks
[7] = Y-700 mixed diet 10 and 20 mg/kg diet

## CC(C)(C)COc1ccc(-n2cc(C(=O)O)cn2)cc1C#N [Y-700, 1-(3-cyano-4-neopentyloxyphenyl)pyrazole-4-carboxylic acid]
[1]; Y-700 5 mg/kg diet, 5 weeks
  number of colonic ACF: 7.0 ± 1.3 n/mice
[1]; Y-700 5 mg/kg diet
  body weight: 40.4 ± 1.2 g
[1]; Y-700 10 mg/kg diet, 5 weeks
  number of colonic ACF: 7.0 ± 0.7 n/mice
[1]; Y-700 10 mg/kg diet
  body weight: 39.9 ± 1.4 g
[1]; Y-700 15 mg/kg diet, 5 weeks
  number of colonic ACF: 6.5 ± 0.6 n/mice
[1]; Y-700 15 mg/kg diet
  body weight: 40.3 ± 0.9 g
[1]; Y-700 20 mg/kg diet, 5 weeks
  number of colonic ACF: 5.5 ± 0.7 n/mice
[1]; Y-700 20 mg/kg diet
  body weight: 39.9 ± 1.0 g
[1]; [5]
  body weight change attributable to Y-700 administration: nor was observed body weight change
  feed intake: No change
[1]; Y-700 mixed diet 5-20 mg/kg diet
  number of colonic ACF, trend: dose-dependent decreases
[1]; conclusion in words
  effect on the increase in the number of colonic ACF induced by azoxymethane: suppressive effect
[2]; 0.5-20 μg/ml
  change in production amount of lipid peroxide attributable to addition of Y-700: No change
[2]; conclusion in words
  antioxidative effect: no antioxidative effect
[3]; Y-700 10 mg/kg diet, 10 weeks
  number of colonic ACF: 20.7 ± 2.0 n/mouse
[3]; Y-700 20 mg/kg diet, 10 weeks
  number of colonic ACF: 22.9 ± 1.4 n/mouse
[3]; [6]
  body weight change attributable to Y-700 administration: nor was observed body weight change
  feed intake: No change
[3]; [7]
  cell growth rate of the surrounding areas, change in words: significant decreases
  number of colonic ACF, change in words: significant decreases
[4]
  radical removing (scavenging) effect: free of radical scavenging effect

## Oc1ncnc2[nH]ncc12 [allopurinol, reference compound]
[4]
  radical removing (scavenging) effect: shows a radical removing (scavenging) effect
